In patent publication US7612065B2, “Inhibitors of c-JUN N-terminal kinases (JNK)” (priority 2007, dated 2009):
pKi: −log10 of the molar value.

Molecular target: T1, JNK3 (Homo sapiens, UniProt P53779)
T1 construct: One such construct encodes amino acid residues Ser40-Glu402 of JNK3α1 and is preceded by Met and Gly residues; Met-Gly (initiation methionine plus glycine added for the NcoI site); made in house; host or cells: E. coli BL21 (DE3)
Experiment: JNK inhibition assay: spectrophotometric coupled-enzyme assay with activated JNK3
Type: biochemical
Conditions: activated JNK3 10 nM, 10 μM ATP, 200 μM EGF receptor peptide, 30° C., competitive inhibition model
From the text: A BLAST search of the EST database using the published JNK3α1 cDNA as a query identified an EST clone (#632588) that contained the entire coding sequence for human JNK3α1. Polymerase chain reactions (PCR) using pfu polymerase (Strategene) were used to introduce restriction sites into the cDNA for cloning into the pET-15B expression vector at the NcoI and BamHI sites. The protein was expressed in E. coli. […] This truncation corresponds to Ser 2 of JNK1 and JNK2 proteins, and is preceded by a methionine (initiation) and a glycine residue. The glycine residue was added in order to introduce an NcoI site for cloning into the expression vector. In addition, systematic C-terminal truncations were performed by PCR to identify a construct that give rise to diffraction-quality crystals.
5 mg of JNK3 was diluted to 0.5 mg/ml in 50 mM HEPES buffer, pH 7.5, containing 100 mM NaCl, 5 mM DTT, 20 mM MgCl2 and 1 mM ATP. GST-MKK7(DD) was added at a molar ratio of 1:2.5 GST-MKK7:JNK3. After incubation for 30 minutes at 25° C., the reaction mixture was concentrated 5-fold by ultrafiltration in a Centriprep-30 (Amicon, Beverly, Mass.), diluted to 10 ml and an additional 1 mM ATP added. This procedure was repeated three times to remove ADP and replenish ATP. The final addition of ATP was 5 mM and the mixture incubated overnight at 4° C.
The activated JNK3/GST-MKK7(DD) reaction mixture was exchanged into 50 mM HEPES buffer, pH 7.5, containing 5 mM DTT and 5% glycerol (w/v) by dialysis or ultrafiltration. The reaction mixture was adjusted to 1.1 M potassium phosphate, pH 7.5, and purified by hydrophobic interaction chromatography (at 25° C.) using a Rainin Hydropore column. […] Activated JNK3 (i.e. doubly phosphorylated JNK3) was stored at −70° C. at 0.25-1 mg/ml.
Compounds were assayed for the inhibition of JNK3 by a spectrophotometric coupled-enzyme assay. In this assay, a fixed concentration of activated JNK3 (10 nM) was incubated with various concentrations of a potential inhibitor dissolved in DMSO for 10 minutes at 30° C. in a buffer containing 0.1 M HEPES buffer, pH 7.5, containing 10 mM MgCl2, 2.5 mM phosphoenolpyruvate, 200 μM NADH, 150 μg/mL pyruvate kinase, 50 μg/mL lactate dehydrogenase, and 200 μM EGF receptor peptide. […] The reaction was initiated by the addition of 10 μM ATP and the assay plate is inserted into the spectrophotometer's assay plate compartment that was maintained at 30° C. The decrease of absorbance at 340 nm was monitored as a function of time. The rate data as a function of inhibitor concentration was fitted to competitive inhibition kinetic model to determine the Ki.

T1 sequence (P53779 40-402): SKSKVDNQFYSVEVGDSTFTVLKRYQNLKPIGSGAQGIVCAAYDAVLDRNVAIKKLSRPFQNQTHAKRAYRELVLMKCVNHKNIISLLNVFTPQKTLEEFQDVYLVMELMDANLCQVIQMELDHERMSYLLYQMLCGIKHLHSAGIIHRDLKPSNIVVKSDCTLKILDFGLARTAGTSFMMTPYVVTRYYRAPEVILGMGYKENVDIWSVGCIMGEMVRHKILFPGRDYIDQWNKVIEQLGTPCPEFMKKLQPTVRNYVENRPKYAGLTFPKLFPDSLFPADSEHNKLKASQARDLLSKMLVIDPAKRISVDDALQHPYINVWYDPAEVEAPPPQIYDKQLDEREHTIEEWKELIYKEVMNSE

pKi | Structure (SMILES)
≤ 6.00 | Cc1ccc2c(c1)/C(=N/O)C(=O)N2Cc1cccc(C(F)(F)F)c1 [Compound 1]
> 6.00 | O=C1/C(=N\O)c2ccccc2N1Cc1c(Cl)cccc1Cl [Compound 2]
≤ 6.00 | O=C1/C(=N\O)c2cc(Cl)ccc2N1Cc1ccc(Cl)cc1 [Compound 3]
> 6.00 | O=C1/C(=N\O)c2cc(Cl)ccc2N1Cc1c(Cl)cccc1Cl [Compound 4]
> 6.00 | O=C1/C(=N\O)c2ccccc2N1Cc1ccc(Cl)c(Cl)c1 [Compound 5]
≤ 6.00 | O=C1/C(=N\O)c2ccccc2N1Cc1cccc(C(F)(F)F)c1 [Compound 6]
> 6.00 | O=C1/C(=N\O)c2ccccc2N1Cc1ccc(Cl)cc1Cl [Compound 7]
≤ 6.00 | Cc1ccc(CN2C(=O)/C(=N\O)c3ccccc32)cc1 [Compound 8]
≤ 6.00 | O=C1/C(=N\O)c2ccccc2N1Cc1cccc(Cl)c1 [Compound 9]
≤ 6.00 | O=C1/C(=N\O)c2ccccc2N1Cc1ccc(Cl)cc1 [Compound 10]
≤ 6.00 | O=C1/C(=N\O)c2cc([N+](=O)[O-])ccc2N1Cc1ccc(Cl)cc1Cl [Compound 11]
≤ 6.00 | O=C1/C(=N\O)c2cc([N+](=O)[O-])ccc2N1Cc1ccc(Cl)cc1 [Compound 12]
> 6.00 | O=C1/C(=N\O)c2cc(Cl)ccc2N1Cc1ccc(Cl)c(Cl)c1 [Compound 13]
≤ 6.00 | Cc1ccc2c(c1)/C(=N/O)C(=O)N2Cc1ccc(Cl)cc1 [Compound 14]
≤ 6.00 | O=C1/C(=N\O)c2cc(Cl)ccc2N1Cc1cccc(C(F)(F)F)c1 [Compound 15]
≤ 6.00 | O=C1/C(=N\O)c2ccccc2N1Cc1ccc(F)cc1 [Compound 17]
≤ 6.00 | O=C1/C(=N\O)c2ccccc2N1Cc1ccc([N+](=O)[O-])cc1 [Compound 18]
≤ 6.00 | Cc1cccc(CN2C(=O)/C(=N\O)c3ccccc32)c1 [Compound 19]
≤ 6.00 | O=C1/C(=N\O)c2ccccc2N1Cc1cccc(F)c1 [Compound 20]
≤ 6.00 | O=C1/C(=N\O)c2ccccc2N1Cc1ccccc1F [Compound 21]
≤ 6.00 | O=C1/C(=N\O)c2cc(Br)ccc2N1Cc1ccccc1 [Compound 23]
≤ 6.00 | O=C1/C(=N\O)c2cc(Br)ccc2N1Cc1ccc(F)cc1 [Compound 24]
≤ 6.00 | O=C1/C(=N\O)c2cc(Br)ccc2N1Cc1ccc([N+](=O)[O-])cc1 [Compound 25]

pKi | Structure (SMILES)
≤ 6.00 | Cc1ccc(CN2C(=O)/C(=N\O)c3cc(Br)ccc32)cc1 [Compound 26]
≤ 6.00 | Cc1cccc(CN2C(=O)/C(=N\O)c3cc(Br)ccc32)c1 [Compound 27]
≤ 6.00 | O=C1/C(=N\O)c2cc(Br)ccc2N1Cc1cccc(F)c1 [Compound 28]
≤ 6.00 | O=C1/C(=N\O)c2cc(Br)ccc2N1Cc1ccccc1F [Compound 29]
≤ 6.00 | Cc1ccc(CN2C(=O)/C(=N\O)c3cc([N+](=O)[O-])ccc32)cc1 [Compound 33]
≤ 6.00 | Cc1cccc(CN2C(=O)/C(=N\O)c3cc([N+](=O)[O-])ccc32)c1 [Compound 34]
≤ 6.00 | Cc1ccc2c(c1)/C(=N/O)C(=O)N2Cc1ccc([N+](=O)[O-])cc1 [Compound 39]
≤ 6.00 | O=C1/C(=N\O)c2cc(Cl)ccc2N1Cc1ccccc1 [Compound 45]
≤ 6.00 | O=C1/C(=N\O)c2cc(Cl)ccc2N1Cc1ccc(F)cc1 [Compound 46]
≤ 6.00 | Cc1ccc(CN2C(=O)/C(=N\O)c3cc(Cl)ccc32)cc1 [Compound 48]
≤ 6.00 | Cc1cccc(CN2C(=O)/C(=N\O)c3cc(Cl)ccc32)c1 [Compound 49]
≤ 6.00 | O=C1/C(=N\O)c2cc(Cl)ccc2N1Cc1cccc(F)c1 [Compound 50]
≤ 6.00 | O=C1/C(=N\O)c2cc(Cl)ccc2N1Cc1ccccc1F [Compound 51]
≤ 6.00 | O=C1/C(=N\O)c2cc(F)ccc2N1Cc1ccc(F)cc1 [Compound 54]
≤ 6.00 | O=C1/C(=N\O)c2cc(F)ccc2N1Cc1ccc([N+](=O)[O-])cc1 [Compound 55]
≤ 6.00 | Cc1ccc(CN2C(=O)/C(=N\O)c3cc(F)ccc32)cc1 [Compound 56]
≤ 6.00 | Cc1cccc(CN2C(=O)/C(=N\O)c3cc(F)ccc32)c1 [Compound 57]
≤ 6.00 | O=C1/C(=N\O)c2cc(F)ccc2N1Cc1cccc(F)c1 [Compound 58]
≤ 6.00 | O=C1/C(=N\O)c2cc(F)ccc2N1Cc1ccccc1F [Compound 59]
≤ 6.00 | COc1ccc(CN2C(=O)/C(=N\O)c3ccccc32)cc1 [Compound 61]
> 6.00 | O=C1/C(=N\O)c2ccccc2N1Cc1cccc([N+](=O)[O-])c1 [Compound 62]
≤ 6.00 | N#Cc1ccccc1CN1C(=O)/C(=N\O)c2ccccc21 [Compound 63]
≤ 6.00 | COc1ccccc1-c1nc(CN2C(=O)/C(=N\O)c3ccccc32)no1 [Compound 64]

pKi | Structure (SMILES)
≤ 6.00 | COc1ccc(-c2nc(CN3C(=O)/C(=N\O)c4ccccc43)no2)cc1 [Compound 65]
≤ 6.00 | O=C1/C(=N\O)c2ccccc2N1Cc1cccc(Oc2ccccc2)c1 [Compound 66]
≤ 6.00 | CS(=O)(=O)c1ccc(CN2C(=O)/C(=N\O)c3ccccc32)cc1 [Compound 67]
> 6.00 | COc1cc(CN2C(=O)/C(=N\O)c3ccccc32)cc(OC)c1 [Compound 68]
> 6.00 | O=C1/C(=N\O)c2ccccc2N1Cc1cc(F)cc2c1OCOC2 [Compound 69]
≤ 6.00 | O=C1/C(=N\O)c2ccccc2N1Cc1ncc(C(F)(F)F)cc1Cl [Compound 70]
≤ 6.00 | O=C1/C(=N\O)c2ccccc2N1Cc1csc(-c2ccc(Cl)cc2)n1 [Compound 71]
≤ 6.00 | COc1ccc(CN2C(=O)/C(=N\O)c3cc(Cl)ccc32)cc1 [Compound 72]
≤ 6.00 | O=C1/C(=N\O)c2cc(Cl)ccc2N1Cc1cccc(Oc2ccccc2)c1 [Compound 73]
> 6.00 | COc1cc(CN2C(=O)/C(=N\O)c3cc(Cl)ccc32)cc(OC)c1 [Compound 74]
> 6.00 | O=C1/C(=N\O)c2cc(Cl)ccc2N1Cc1cc(F)cc2c1OCCO2 [Compound 75]
≤ 6.00 | O=C1/C(=N\O)c2cc(Cl)ccc2N1Cc1ccccn1 [Compound 76]
> 6.00 | O=C1/C(=N\O)c2cc(Cl)ccc2N1Cc1csc(-c2ccc(Cl)cc2)n1 [Compound 77]
≤ 6.00 | COc1ccc(CN2C(=O)/C(=N\O)c3cc(F)ccc32)cc1 [Compound 78]
≤ 6.00 | O=C1/C(=N\O)c2cc(F)ccc2N1Cc1cccc([N+](=O)[O-])c1 [Compound 79]
≤ 6.00 | N#Cc1ccccc1CN1C(=O)/C(=N\O)c2cc(F)ccc21 [Compound 80]
≤ 6.00 | COc1ccccc1-c1nc(CN2C(=O)/C(=N\O)c3cc(F)ccc32)no1 [Compound 81]
≤ 6.00 | O=C1/C(=N\O)c2cc(F)ccc2N1Cc1cccc(Oc2ccccc2)c1 [Compound 82]
≤ 6.00 | CS(=O)(=O)c1ccc(CN2C(=O)/C(=N\O)c3cc(F)ccc32)cc1 [Compound 83]
> 6.00 | COc1cc(CN2C(=O)/C(=N\O)c3cc(F)ccc32)cc(OC)c1 [Compound 84]
> 6.00 | O=C1/C(=N\O)c2cc(F)ccc2N1Cc1cc(F)cc2c1OCOC2 [Compound 85]
≤ 6.00 | O=C1/C(=N\O)c2cc(F)ccc2N1Cc1csc(-c2ccc(Cl)cc2)n1 [Compound 86]
≤ 6.00 | COc1ccc(CN2C(=O)/C(=N\O)c3cc(C)cc(C)c32)cc1 [Compound 87]
